PMC8887546, “Design and Synthesis of Brain Penetrant Glycopeptide Analogues of PACAP With Neuroprotective Potential for Traumatic Brain Injury and Parkinsonism” (Frontiers in drug discovery, 2022)

What was measured:
Format in all cases: cell-based
human VPAC2 receptor = target: T1, human VPAC2 receptor (Homo sapiens, UniProt P41587); experiment: cAMP stimulation in CHO cells expressing VPAC2
T1 construct: expressed in transfected cells; host or cells: CHO cells (G418 selection)
T1 sequence (P41587 24-438): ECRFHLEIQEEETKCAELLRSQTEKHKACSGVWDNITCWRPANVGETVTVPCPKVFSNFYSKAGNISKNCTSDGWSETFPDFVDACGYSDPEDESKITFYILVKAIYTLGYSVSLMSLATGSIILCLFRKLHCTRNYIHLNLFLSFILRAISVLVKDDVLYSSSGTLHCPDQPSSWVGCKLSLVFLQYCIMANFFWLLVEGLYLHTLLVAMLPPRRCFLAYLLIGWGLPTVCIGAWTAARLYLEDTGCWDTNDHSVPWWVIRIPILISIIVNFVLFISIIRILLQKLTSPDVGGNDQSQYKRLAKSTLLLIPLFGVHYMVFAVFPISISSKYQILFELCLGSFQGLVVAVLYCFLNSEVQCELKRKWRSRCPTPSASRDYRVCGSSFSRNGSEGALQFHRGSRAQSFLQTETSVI
Method in brief: (§1)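 Serum-starved CHO cells expressing human receptors were pre-treated 20 min with 500 μM IBMX, then exposed to agonist concentration curves for 10 min in 500 μM IBMX. cAMP quantified by competition with bovine PKA and ^3H-cAMP (1 h, room temperature), scintillation read.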

human PAC1 receptor = target: T2, human PAC1 receptor (Homo sapiens, UniProt P41586); experiment: cAMP stimulation in CHO cells expressing PAC1
T2 construct: expressed in transfected cells; host or cells: CHO cells (G418 selection)
T2 sequence (P41586 21-468): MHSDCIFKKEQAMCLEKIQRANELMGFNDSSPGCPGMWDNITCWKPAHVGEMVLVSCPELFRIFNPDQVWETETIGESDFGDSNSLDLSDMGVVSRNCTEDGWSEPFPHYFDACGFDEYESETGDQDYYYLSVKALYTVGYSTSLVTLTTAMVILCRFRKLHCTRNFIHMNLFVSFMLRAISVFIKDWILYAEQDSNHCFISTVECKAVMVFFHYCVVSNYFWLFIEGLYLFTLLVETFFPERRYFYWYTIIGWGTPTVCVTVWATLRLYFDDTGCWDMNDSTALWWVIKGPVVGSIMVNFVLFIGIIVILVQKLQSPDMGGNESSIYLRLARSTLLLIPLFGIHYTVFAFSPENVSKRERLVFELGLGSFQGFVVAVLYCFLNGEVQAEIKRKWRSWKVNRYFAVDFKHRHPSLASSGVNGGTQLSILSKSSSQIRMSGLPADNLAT
Method in brief: as §1

human VPAC1 receptor = target: T3, human VPAC1 receptor (Homo sapiens, UniProt P32241); experiment: cAMP stimulation in CHO cells expressing VPAC1
T3 construct: expressed in transfected cells; host or cells: CHO cells (G418 selection)
T3 sequence (P32241 31-457): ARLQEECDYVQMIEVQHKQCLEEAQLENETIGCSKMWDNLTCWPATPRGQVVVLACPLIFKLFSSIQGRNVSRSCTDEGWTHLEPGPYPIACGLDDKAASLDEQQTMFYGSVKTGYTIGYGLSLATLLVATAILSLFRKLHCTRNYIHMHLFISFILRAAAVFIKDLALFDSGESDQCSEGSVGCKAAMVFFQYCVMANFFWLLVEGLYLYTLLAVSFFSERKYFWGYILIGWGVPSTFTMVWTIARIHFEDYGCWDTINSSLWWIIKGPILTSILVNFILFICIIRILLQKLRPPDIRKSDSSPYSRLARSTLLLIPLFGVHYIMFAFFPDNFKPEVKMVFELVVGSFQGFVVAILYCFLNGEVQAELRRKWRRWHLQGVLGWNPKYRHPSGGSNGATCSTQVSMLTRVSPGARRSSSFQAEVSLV

SMILES: CCC[C@H](NC(=O)[C@H](CCC(N)=O)NC(=O)[C@H](CCCCN)NC(=O)[C@H](CCCNC(=N)N)NC(=O)[C@H](Cc1ccc(O)cc1)NC(=O)[C@H](CCCNC(=N)N)NC(=O)[C@H](CO)NC(=O)[C@H](Cc1ccc(O)cc1)NC(=O)[C@H](CO)NC(=O)[C@H](CC(=O)O)NC(=O)[C@@H](NC(=O)[C@H](Cc1ccccc1)NC(=O)[C@@H](CCC)NC(=O)CNC(=O)[C@H](CC(=O)O)NC(=O)[C@@H](CO)NC(=O)[C@H](Cc1c[nH]cn1)NC(C)=O)[C@@H](C)O)C(=O)N[C@@H](C)C(=O)N[C@H](C(=O)N[C@@H](CCCCN)C(=O)N[C@@H](CCCCN)C(=O)N[C@@H](Cc1ccc(O)cc1)C(=O)N[C@@H](CC(C)C)C(=O)N[C@@H](C)C(=O)N[C@@H](C)C(=O)N[C@H](C(=O)N[C@@H](CC(C)C)C(=O)N[C@@H](CO[C@@H]1O[C@H](CO)[C@@H](O)[C@H](O)[C@H]1O)C(N)=O)C(C)C)C(C)C [Ac-CRA 3020]
- EC50 (human VPAC2 receptor): > 2500 nM
- Emax (human VPAC2 receptor; CHO): 71%
- EC50 (human PAC1 receptor): > 2500 nM
- Emax (human PAC1 receptor; CHO): 61%
- Emax (human VPAC1 receptor; CHO, read-out: VPAC1 Emax): 36%
- EC50 (human VPAC1 receptor; read-out: VPAC1 EC50): 244 nM
